Assay: molar heat capacity at constant pressure
Settings: 101.33 kPa, Crystal

OC[C@@H](O)[C@@H](O)CO [meso-1,2,3,4-butanetetrol]
Settings	molar heat capacity at constant pressure [J/K/mol]
1 K, relaxation calorimetry	0.00103
1.924 K, relaxation calorimetry	0.005451
2 K, relaxation calorimetry	0.006099
2.124 K, relaxation calorimetry	0.007391
2.347 K, relaxation calorimetry	0.009418
2.604 K, relaxation calorimetry	0.01294
2.892 K, relaxation calorimetry	0.01782
3 K, relaxation calorimetry	0.01982
3.203 K, relaxation calorimetry	0.02425
3.549 K, relaxation calorimetry	0.03325
3.937 K, relaxation calorimetry	0.04561
4 K, relaxation calorimetry	0.04786
4.364 K, relaxation calorimetry	0.06293
4.842 K, relaxation calorimetry	0.08785
5 K, relaxation calorimetry	0.09724
5.372 K, relaxation calorimetry	0.1225
5.959 K, relaxation calorimetry	0.1717
6 K, relaxation calorimetry	0.1763
6.613 K, relaxation calorimetry	0.2418
7 K, relaxation calorimetry	0.2944
7.34 K, relaxation calorimetry	0.3445
8 K, relaxation calorimetry	0.4614
8.147 K, relaxation calorimetry	0.493
9 K, relaxation calorimetry	0.6863
9.042 K, relaxation calorimetry	0.6996
10 K, relaxation calorimetry	0.9714
10.11 K, relaxation calorimetry	0.9995
11.21 K, relaxation calorimetry	1.394
12.45 K, relaxation calorimetry	1.929
13.81 K, relaxation calorimetry	2.607
15 K, relaxation calorimetry	3.273
15.35 K, relaxation calorimetry	3.484
17.04 K, relaxation calorimetry	4.582
18.93 K, relaxation calorimetry	5.892
20 K, relaxation calorimetry	6.679
21.01 K, relaxation calorimetry	7.451
23.34 K, relaxation calorimetry	9.268
25 K, relaxation calorimetry	10.62
25.88 K, relaxation calorimetry	11.3
28.73 K, relaxation calorimetry	13.63
30 K, relaxation calorimetry	14.7
31.9 K, relaxation calorimetry	16.25
35 K, relaxation calorimetry	18.79
35.42 K, relaxation calorimetry	19.19
39.33 K, relaxation calorimetry	22.36
40 K, relaxation calorimetry	22.84
43.67 K, relaxation calorimetry	25.77
45 K, relaxation calorimetry	26.81
48.45 K, relaxation calorimetry	29.39
50 K, relaxation calorimetry	30.63
53.77 K, relaxation calorimetry	33.35
55 K, relaxation calorimetry	34.26
59.7 K, relaxation calorimetry	37.69
60 K, relaxation calorimetry	37.94
65 K, relaxation calorimetry	41.5
66.26 K, relaxation calorimetry	42.34
70 K, relaxation calorimetry	44.95
73.58 K, relaxation calorimetry	47.19
75 K, relaxation calorimetry	48.3
80 K, relaxation calorimetry	51.54
81.69 K, relaxation calorimetry	52.8
85 K, relaxation calorimetry	54.68
90 K, relaxation calorimetry	57.74
90.67 K, relaxation calorimetry	58.3
95 K, relaxation calorimetry	60.72
100 K, relaxation calorimetry	63.64
100.62 K, relaxation calorimetry	63.74
110 K, relaxation calorimetry	69.28
110.75 K, relaxation calorimetry	69.63
120 K, relaxation calorimetry	74.73
120.81 K, relaxation calorimetry	75.51
130 K, relaxation calorimetry	80.03
130.85 K, relaxation calorimetry	80.63
140 K, relaxation calorimetry	85.23
140.98 K, relaxation calorimetry	85.76
150 K, relaxation calorimetry	90.34
151.1 K, relaxation calorimetry	90.49
160 K, relaxation calorimetry	95.4
161.19 K, relaxation calorimetry	95.3
170 K, relaxation calorimetry	100.41
171.29 K, relaxation calorimetry	100.67
180 K, relaxation calorimetry	105.4
181.37 K, relaxation calorimetry	106.96
188.15 K, Small sample (50 mg) DSC	104.81
189.15 K, Small sample (50 mg) DSC	105.65
190 K, relaxation calorimetry	110.37
190.15 K, Small sample (50 mg) DSC	106.41
191.15 K, Small sample (50 mg) DSC	107.06
191.45 K, relaxation calorimetry	111.84
192.15 K, Small sample (50 mg) DSC	107.53
193.15 K, Small sample (50 mg) DSC	107.94
194.15 K, Small sample (50 mg) DSC	108.84
195.15 K, Small sample (50 mg) DSC	109.73
196.15 K, Small sample (50 mg) DSC	110.56
197.15 K, Small sample (50 mg) DSC	111.25
198.15 K, Small sample (50 mg) DSC	111.77
199.15 K, Small sample (50 mg) DSC	112.42
200 K, relaxation calorimetry	115.34
200.15 K, Small sample (50 mg) DSC	113.07
201.15 K, Small sample (50 mg) DSC	113.73
201.6 K, relaxation calorimetry	116.2
202.15 K, Small sample (50 mg) DSC	114.29
203.15 K, Small sample (50 mg) DSC	114.78
204.15 K, Small sample (50 mg) DSC	115.4
205.15 K, Small sample (50 mg) DSC	115.95
206.15 K, Small sample (50 mg) DSC	116.45
207.15 K, Small sample (50 mg) DSC	116.98
208.15 K, Small sample (50 mg) DSC	117.43
209.15 K, Small sample (50 mg) DSC	117.85
210 K, relaxation calorimetry	120.31
210.15 K, Small sample (50 mg) DSC	118.46
211.15 K, Small sample (50 mg) DSC	119.05
211.7 K, relaxation calorimetry	120.82
212.15 K, Small sample (50 mg) DSC	119.45
213.15 K, Small sample (50 mg) DSC	120.03
214.15 K, Small sample (50 mg) DSC	120.6
215.15 K, Small sample (50 mg) DSC	120.96
216.15 K, Small sample (50 mg) DSC	121.61
217.15 K, Small sample (50 mg) DSC	122.09
218.15 K, Small sample (50 mg) DSC	122.56
219.15 K, Small sample (50 mg) DSC	123.25
220 K, relaxation calorimetry	125.28
220.15 K, Small sample (50 mg) DSC	123.79
221.15 K, Small sample (50 mg) DSC	124.32
221.79 K, relaxation calorimetry	126.14
222.15 K, Small sample (50 mg) DSC	124.76
223.15 K, Small sample (50 mg) DSC	125.31
224.15 K, Small sample (50 mg) DSC	125.9
225.15 K, Small sample (50 mg) DSC	126.32
226.15 K, Small sample (50 mg) DSC	126.8
227.15 K, Small sample (50 mg) DSC	127.31
228.15 K, Small sample (50 mg) DSC	127.86
229.15 K, Small sample (50 mg) DSC	128.26
230 K, relaxation calorimetry	130.27
230.15 K, Small sample (50 mg) DSC	128.74
231.15 K, Small sample (50 mg) DSC	129.25
231.89 K, relaxation calorimetry	131.18
232.15 K, Small sample (50 mg) DSC	129.79
233.15 K, Small sample (50 mg) DSC	130.29
234.15 K, Small sample (50 mg) DSC	130.84
235.15 K, Small sample (50 mg) DSC	131.47
236.15 K, Small sample (50 mg) DSC	132.03
237.15 K, Small sample (50 mg) DSC	132.65
238.15 K, Small sample (50 mg) DSC	133.18
239.15 K, Small sample (50 mg) DSC	133.62
240 K, relaxation calorimetry	135.27
240.15 K, Small sample (50 mg) DSC	134.1
241.15 K, Small sample (50 mg) DSC	134.58
241.92 K, relaxation calorimetry	136.06
242.15 K, Small sample (50 mg) DSC	135
243.15 K, Small sample (50 mg) DSC	135.48
244.15 K, Small sample (50 mg) DSC	135.91
245.15 K, Small sample (50 mg) DSC	136.33
246.15 K, Small sample (50 mg) DSC	136.8
247.15 K, Small sample (50 mg) DSC	137.31
248.15 K, Small sample (50 mg) DSC	137.82
249.15 K, Small sample (50 mg) DSC	138.21
250 K, relaxation calorimetry	140.29
250.15 K, Small sample (50 mg) DSC	138.96
251.15 K, Small sample (50 mg) DSC	139.41
251.99 K, relaxation calorimetry	141.26
252.15 K, Small sample (50 mg) DSC	139.85
253.15 K, Small sample (50 mg) DSC	140.35
254.15 K, Small sample (50 mg) DSC	140.97
255.15 K, Small sample (50 mg) DSC	141.49
256.15 K, Small sample (50 mg) DSC	142.02
257.15 K, Small sample (50 mg) DSC	142.62
258.15 K, Small sample (50 mg) DSC	143.2
259.15 K, Small sample (50 mg) DSC	143.78
260 K, relaxation calorimetry	145.33
260.15 K, Small sample (50 mg) DSC	144.21
261.15 K, Small sample (50 mg) DSC	144.74
262.11 K, relaxation calorimetry	146.2
262.15 K, Small sample (50 mg) DSC	145.34
263.15 K, Small sample (50 mg) DSC	145.66

— the NIST ThermoML archive (doi:10.1016/j.jct.2017.08.004)
